Results taken from paper PMC4051630, “A Comparison of Protein Kinases Inhibitor Screening Methods Using Both Enzymatic Activity and Binding Affinity Determination” (PLoS ONE, 2014).

Legend:
Assay in all cases: Differential Scanning Fluorimetry (DSF) Tm shift
Type in all cases: binding
[1] = molecular target: T1, AKT3 Catalytic Domain (Homo sapiens, UniProt Q9Y243); settings: 2 µM protein, 10 µM inhibitor, average of 3 experiments, each in duplicate
T1 construct: AKT3 (Q9Y243); CD; His-tag; made in house; host or cells: Escherichia coli
T1 sequence (Q9Y243 122-479): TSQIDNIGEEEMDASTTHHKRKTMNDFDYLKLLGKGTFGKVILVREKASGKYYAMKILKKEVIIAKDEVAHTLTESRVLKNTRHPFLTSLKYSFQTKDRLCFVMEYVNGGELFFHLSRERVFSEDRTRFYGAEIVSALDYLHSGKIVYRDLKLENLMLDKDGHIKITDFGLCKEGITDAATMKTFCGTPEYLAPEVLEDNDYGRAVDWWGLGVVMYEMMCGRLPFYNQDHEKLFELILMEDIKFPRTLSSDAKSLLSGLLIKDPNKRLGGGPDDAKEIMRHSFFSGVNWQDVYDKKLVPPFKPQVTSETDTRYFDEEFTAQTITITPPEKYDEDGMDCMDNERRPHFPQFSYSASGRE

[2] = molecular target: T2, CHK2 Catalytic Domain (Homo sapiens, UniProt O96017); settings: 2 µM protein, 10 µM inhibitor, average of 3 experiments, each in duplicate
T2 construct: For all of them, we expressed and purified the catalytic domain separately; His-tag; made in house; host or cells: Escherichia coli
T2 sequence (O96017 220-486 limits assumed): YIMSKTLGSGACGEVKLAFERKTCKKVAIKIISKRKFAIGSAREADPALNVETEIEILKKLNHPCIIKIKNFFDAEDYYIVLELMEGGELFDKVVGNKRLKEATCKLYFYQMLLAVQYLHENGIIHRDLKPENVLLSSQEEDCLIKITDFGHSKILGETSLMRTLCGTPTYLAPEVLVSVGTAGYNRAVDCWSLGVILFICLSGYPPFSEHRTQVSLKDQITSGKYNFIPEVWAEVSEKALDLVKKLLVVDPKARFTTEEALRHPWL

[3] = molecular target: T3, DMPK Catalytic Domain (Homo sapiens, UniProt Q09013); settings: 2 µM protein, 10 µM inhibitor, average of 3 experiments, each in duplicate
T3 construct: For all of them, we expressed and purified the catalytic domain separately; His-tag; made in house; host or cells: Escherichia coli
T3 sequence (Q09013 71-339 limits assumed): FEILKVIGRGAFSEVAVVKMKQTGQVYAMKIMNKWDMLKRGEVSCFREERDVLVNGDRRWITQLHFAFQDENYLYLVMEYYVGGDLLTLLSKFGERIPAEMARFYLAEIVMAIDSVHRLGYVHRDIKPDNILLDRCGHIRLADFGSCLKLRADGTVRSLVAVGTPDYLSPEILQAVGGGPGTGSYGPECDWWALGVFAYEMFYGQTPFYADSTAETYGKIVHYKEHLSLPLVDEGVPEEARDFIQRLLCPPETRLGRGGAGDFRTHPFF

[4] = molecular target: T4, FAK2 Catalytic Domain (Homo sapiens, UniProt Q14289); settings: 2 µM protein, 10 µM inhibitor, average of 3 experiments, each in duplicate
T4 construct: For all of them, we expressed and purified the catalytic domain separately; His-tag; made in house; host or cells: Escherichia coli
T4 sequence (Q14289 425-683 limits assumed): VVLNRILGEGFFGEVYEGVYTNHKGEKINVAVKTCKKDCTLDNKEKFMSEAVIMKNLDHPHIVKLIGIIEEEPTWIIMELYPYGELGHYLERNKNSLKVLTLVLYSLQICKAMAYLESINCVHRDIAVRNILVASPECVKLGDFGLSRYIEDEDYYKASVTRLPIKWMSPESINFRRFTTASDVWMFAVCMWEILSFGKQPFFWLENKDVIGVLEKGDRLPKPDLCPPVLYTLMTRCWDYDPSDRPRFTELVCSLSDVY

[5] = molecular target: T5, FES Catalytic Domain+SH2 (Homo sapiens, UniProt P07332); settings: 2 µM protein, 10 µM inhibitor, average of 3 experiments, each in duplicate
T5 construct: for 8, we also made a longer version containing one or more additional domains; His-tag; made in house; host or cells: Escherichia coli
T5 sequence (P07332 448-822 limits assumed): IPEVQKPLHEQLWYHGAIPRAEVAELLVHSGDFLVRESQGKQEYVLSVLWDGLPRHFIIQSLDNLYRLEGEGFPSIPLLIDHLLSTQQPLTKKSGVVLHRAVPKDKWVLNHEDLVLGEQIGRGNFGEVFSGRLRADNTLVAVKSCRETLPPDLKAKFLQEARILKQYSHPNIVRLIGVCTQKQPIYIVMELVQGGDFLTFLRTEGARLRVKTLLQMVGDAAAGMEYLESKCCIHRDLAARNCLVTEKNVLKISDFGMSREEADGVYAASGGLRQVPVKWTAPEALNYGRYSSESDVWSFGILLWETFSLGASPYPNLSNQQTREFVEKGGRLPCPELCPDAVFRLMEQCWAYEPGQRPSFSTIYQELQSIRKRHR

[6] = molecular target: T6, FES Catalytic Domain (Homo sapiens, UniProt P07332); settings: 2 µM protein, 10 µM inhibitor, average of 3 experiments, each in duplicate
T6 construct: For all of them, we expressed and purified the catalytic domain separately; His-tag; made in house; host or cells: Escherichia coli
T6 sequence (P07332 561-822 limits assumed): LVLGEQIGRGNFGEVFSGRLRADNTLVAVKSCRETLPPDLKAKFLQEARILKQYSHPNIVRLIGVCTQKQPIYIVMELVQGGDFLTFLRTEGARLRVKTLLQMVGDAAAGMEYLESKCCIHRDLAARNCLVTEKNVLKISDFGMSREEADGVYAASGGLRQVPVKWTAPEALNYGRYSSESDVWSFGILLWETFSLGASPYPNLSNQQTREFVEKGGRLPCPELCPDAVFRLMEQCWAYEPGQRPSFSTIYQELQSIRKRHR

[7] = molecular target: T7, PAK4 Catalytic Domain+PBD (Homo sapiens, UniProt O96013); settings: 2 µM protein, 10 µM inhibitor, average of 3 experiments, each in duplicate
T7 construct: for 8, we also made a longer version containing one or more additional domains; His-tag; made in house; host or cells: Escherichia coli
T7 sequence (O96013 whole entry, the tested form may be a part): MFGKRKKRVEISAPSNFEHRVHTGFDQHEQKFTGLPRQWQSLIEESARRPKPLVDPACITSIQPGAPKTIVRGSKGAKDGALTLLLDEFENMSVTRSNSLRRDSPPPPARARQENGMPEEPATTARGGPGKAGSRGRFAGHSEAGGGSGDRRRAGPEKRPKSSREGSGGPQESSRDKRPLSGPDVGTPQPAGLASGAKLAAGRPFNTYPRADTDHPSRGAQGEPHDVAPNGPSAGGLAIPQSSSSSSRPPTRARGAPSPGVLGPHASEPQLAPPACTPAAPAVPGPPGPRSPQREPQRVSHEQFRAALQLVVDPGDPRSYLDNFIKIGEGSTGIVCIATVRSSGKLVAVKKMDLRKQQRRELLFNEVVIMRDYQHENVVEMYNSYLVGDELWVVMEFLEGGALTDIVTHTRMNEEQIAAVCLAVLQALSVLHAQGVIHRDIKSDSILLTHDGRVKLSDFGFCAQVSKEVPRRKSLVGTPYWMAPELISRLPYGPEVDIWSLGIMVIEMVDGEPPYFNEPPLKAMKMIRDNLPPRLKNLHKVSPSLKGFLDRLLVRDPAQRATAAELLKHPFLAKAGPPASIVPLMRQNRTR

[8] = molecular target: T8, PAK4 Catalytic Domain (Homo sapiens, UniProt O96013); settings: 2 µM protein, 10 µM inhibitor, average of 3 experiments, each in duplicate
T8 construct: For all of them, we expressed and purified the catalytic domain separately; His-tag; made in house; host or cells: Escherichia coli
T8 sequence (O96013 321-572 limits assumed): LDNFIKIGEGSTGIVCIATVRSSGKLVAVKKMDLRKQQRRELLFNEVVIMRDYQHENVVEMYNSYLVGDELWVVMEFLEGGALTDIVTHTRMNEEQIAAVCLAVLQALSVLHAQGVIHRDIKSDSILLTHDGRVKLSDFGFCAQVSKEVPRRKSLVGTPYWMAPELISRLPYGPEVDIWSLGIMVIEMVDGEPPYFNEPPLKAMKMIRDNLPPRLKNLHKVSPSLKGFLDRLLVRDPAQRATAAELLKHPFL

[9] = molecular target: SRC Catalytic Domain+SH2+SH3 (Homo sapiens, UniProt P12931); settings: 2 µM protein, 10 µM inhibitor, average of 3 experiments, each in duplicate
Chain of SRC Catalytic Domain+SH2+SH3 (P12931 84-523 limits assumed): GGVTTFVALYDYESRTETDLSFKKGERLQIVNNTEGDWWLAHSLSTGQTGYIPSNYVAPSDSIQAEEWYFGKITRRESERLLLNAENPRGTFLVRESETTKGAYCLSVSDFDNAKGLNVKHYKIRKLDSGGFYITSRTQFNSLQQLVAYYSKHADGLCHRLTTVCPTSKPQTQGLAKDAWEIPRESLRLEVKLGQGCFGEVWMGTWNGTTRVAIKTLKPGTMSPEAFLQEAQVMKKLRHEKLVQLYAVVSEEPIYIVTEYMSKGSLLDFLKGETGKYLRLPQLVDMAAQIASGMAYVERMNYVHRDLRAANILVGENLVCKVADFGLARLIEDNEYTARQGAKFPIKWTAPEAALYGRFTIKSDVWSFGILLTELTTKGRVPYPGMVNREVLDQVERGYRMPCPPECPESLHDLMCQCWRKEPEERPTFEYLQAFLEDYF

[10] = molecular target: T9, STK3 Catalytic domain+SARAH (Homo sapiens, UniProt Q13188); settings: 2 µM protein, 10 µM inhibitor, average of 3 experiments, each in duplicate
T9 construct: for 8, we also made a longer version containing one or more additional domains; His-tag; made in house; host or cells: Escherichia coli
T9 sequence (Q13188 1-491): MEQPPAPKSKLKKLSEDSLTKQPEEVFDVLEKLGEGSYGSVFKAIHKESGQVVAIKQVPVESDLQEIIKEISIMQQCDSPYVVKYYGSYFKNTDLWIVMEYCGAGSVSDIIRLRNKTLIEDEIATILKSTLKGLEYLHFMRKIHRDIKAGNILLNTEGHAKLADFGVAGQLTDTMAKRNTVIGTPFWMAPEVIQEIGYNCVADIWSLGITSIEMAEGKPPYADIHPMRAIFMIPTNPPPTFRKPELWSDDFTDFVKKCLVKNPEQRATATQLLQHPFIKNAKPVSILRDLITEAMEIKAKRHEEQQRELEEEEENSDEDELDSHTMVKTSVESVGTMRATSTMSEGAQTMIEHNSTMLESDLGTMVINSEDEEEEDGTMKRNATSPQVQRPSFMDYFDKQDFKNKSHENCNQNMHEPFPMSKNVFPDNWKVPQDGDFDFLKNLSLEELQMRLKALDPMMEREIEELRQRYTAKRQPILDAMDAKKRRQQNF

[11] = molecular target: T10, STK3 Catalytic Domain (Homo sapiens, UniProt Q13188); settings: 2 µM protein, 10 µM inhibitor, average of 3 experiments, each in duplicate
T10 construct: For all of them, we expressed and purified the catalytic domain separately; His-tag; made in house; host or cells: Escherichia coli
T10 sequence (Q13188 27-278 limits assumed): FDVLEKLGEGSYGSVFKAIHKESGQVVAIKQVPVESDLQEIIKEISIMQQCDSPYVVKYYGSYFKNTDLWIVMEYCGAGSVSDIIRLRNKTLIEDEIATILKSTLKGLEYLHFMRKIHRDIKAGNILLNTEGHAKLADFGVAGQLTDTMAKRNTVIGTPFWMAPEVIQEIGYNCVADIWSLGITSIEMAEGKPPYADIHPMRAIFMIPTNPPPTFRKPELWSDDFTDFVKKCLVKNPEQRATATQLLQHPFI

[12] = molecular target: T11, PAK7 Catalytic Domain (Homo sapiens, UniProt Q9P286); settings: 2 µM protein, 10 µM inhibitor, average of 3 experiments, each in duplicate
T11 construct: For all of them, we expressed and purified the catalytic domain separately; His-tag; made in house; host or cells: Escherichia coli
T11 sequence (Q9P286 449-700 limits assumed): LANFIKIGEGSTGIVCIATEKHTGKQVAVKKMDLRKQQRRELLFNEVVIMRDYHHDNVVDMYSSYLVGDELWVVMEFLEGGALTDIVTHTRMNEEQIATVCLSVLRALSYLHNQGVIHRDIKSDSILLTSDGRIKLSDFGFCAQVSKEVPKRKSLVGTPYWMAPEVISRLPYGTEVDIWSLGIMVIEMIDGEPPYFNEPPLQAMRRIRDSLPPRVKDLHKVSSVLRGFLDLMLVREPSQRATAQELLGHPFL

[13] = molecular target: T12, CDK2 + Cyclin A (Homo sapiens, UniProt P24941); settings: CDK2 + Cyclin A; 2 µM protein, 10 µM inhibitor; average of 3 experiments, each in duplicate
T12 construct: CDK2 (P24941); 1–299; His-tag; made in house; host or cells: Escherichia coli

Brc1c(Br)c(Br)c2n[nH]nc2c1Br [Casein Kinase II Inhibitor I]
Melting temperature (Tm) shift [1]: 0.1 degrees Celcius
Melting temperature (Tm) shift [2]: 2.2 degrees Celcius
Melting temperature (Tm) shift [3]: 0.6 degrees Celcius
Melting temperature (Tm) shift [4]: 0.1 degrees Celcius
Melting temperature (Tm) shift [5]: 0.8 degrees Celcius
Melting temperature (Tm) shift [6]: 0.0 degrees Celcius
Melting temperature (Tm) shift [7]: 0.9 degrees Celcius
Melting temperature (Tm) shift [8]: 0.2 degrees Celcius
Melting temperature (Tm) shift [9]: 0.2 degrees Celcius
Melting temperature (Tm) shift [10]: 0.4 degrees Celcius
Melting temperature (Tm) shift [11]: 1.1 degrees Celcius

CC[C@@H](CO)Nc1nc(NCc2ccccc2)c2ncn(C(C)C)c2n1 (single isomer, unassigned) [Roscovitine, (S)-Isomer]
Melting temperature (Tm) shift [1]: 0.0 degrees Celcius
Melting temperature (Tm) shift [2]: 0.6 degrees Celcius
Melting temperature (Tm) shift [3]: 0.3 degrees Celcius
Melting temperature (Tm) shift [4]: 0.2 degrees Celcius
Melting temperature (Tm) shift [5]: 0.9 degrees Celcius
Melting temperature (Tm) shift [6]: 1.2 degrees Celcius
Melting temperature (Tm) shift [7]: 2.6 degrees Celcius
Melting temperature (Tm) shift [8]: 1.4 degrees Celcius
Melting temperature (Tm) shift [12]: 0.7 degrees Celcius
Melting temperature (Tm) shift [10]: 0.0 degrees Celcius
Melting temperature (Tm) shift [11]: 0.0 degrees Celcius

CN(C)c1nc2c(Br)c(Br)c(Br)c(Br)c2[nH]1 [Casein Kinase II Inhibitor II, DMAT]
Melting temperature (Tm) shift [13]: 0.5 degrees Celcius
Melting temperature (Tm) shift [2]: 0.3 degrees Celcius
Melting temperature (Tm) shift [3]: 0.4 degrees Celcius
Melting temperature (Tm) shift [4]: 3.2 degrees Celcius
Melting temperature (Tm) shift [7]: 0.3 degrees Celcius
Melting temperature (Tm) shift [8]: 0.2 degrees Celcius
Melting temperature (Tm) shift [12]: 4.1 degrees Celcius
Melting temperature (Tm) shift [9]: 0.9 degrees Celcius
Melting temperature (Tm) shift [10]: 0.4 degrees Celcius
Melting temperature (Tm) shift [11]: 0.3 degrees Celcius

CC#CC(=O)Nc1cc2c(Nc3ccc(F)c(Cl)c3)ncnc2cn1 [EGFR/ErbB-2/ErbB-4 Inhibitor]
Melting temperature (Tm) shift [1]: 0.0 degrees Celcius
Melting temperature (Tm) shift [2]: 0.3 degrees Celcius
Melting temperature (Tm) shift [6]: 0.0 degrees Celcius
Melting temperature (Tm) shift [7]: 0.1 degrees Celcius
Melting temperature (Tm) shift [12]: 0.0 degrees Celcius
Melting temperature (Tm) shift [9]: 0.0 degrees Celcius
Melting temperature (Tm) shift [11]: 0.2 degrees Celcius

O=c1c2ccccc2[nH]c(=S)n1CCN1CCC(=C(c2ccc(F)cc2)c2ccc(F)cc2)CC1 [Diacylglycerol Kinase Inhibitor II]
Melting temperature (Tm) shift [6]: 0.7 degrees Celcius
Melting temperature (Tm) shift [7]: 0.2 degrees Celcius

COc1ccc2c(c1)c1c3c(c4c5ccccc5n(C)c4c1n2CC(O)CN(C)C)C(=O)NC3=O.Cl (stereo not drawn) [Gö 7874, Hydrochloride]
Melting temperature (Tm) shift [1]: 0.2 degrees Celcius
Melting temperature (Tm) shift [13]: 0.2 degrees Celcius
Melting temperature (Tm) shift [2]: 1.1 degrees Celcius
Melting temperature (Tm) shift [3]: 0.2 degrees Celcius
Melting temperature (Tm) shift [4]: 0.7 degrees Celcius
Melting temperature (Tm) shift [5]: 0.0 degrees Celcius
Melting temperature (Tm) shift [6]: 0.3 degrees Celcius
Melting temperature (Tm) shift [7]: 0.1 degrees Celcius
Melting temperature (Tm) shift [12]: 0.1 degrees Celcius
Melting temperature (Tm) shift [10]: 2.2 degrees Celcius
Melting temperature (Tm) shift [11]: 1.4 degrees Celcius

O=C1C(Cl)=C(N2C(=O)CCC2=O)C(=O)c2ccccc21 [MEK Inhibitor II]
Melting temperature (Tm) shift [1]: 0.3 degrees Celcius
Melting temperature (Tm) shift [13]: 0.1 degrees Celcius
Melting temperature (Tm) shift [2]: 0.0 degrees Celcius
Melting temperature (Tm) shift [5]: 0.0 degrees Celcius
Melting temperature (Tm) shift [6]: 0.0 degrees Celcius
Melting temperature (Tm) shift [8]: 0.0 degrees Celcius
Melting temperature (Tm) shift [12]: 0.0 degrees Celcius
Melting temperature (Tm) shift [9]: 0.0 degrees Celcius
Melting temperature (Tm) shift [10]: 0.1 degrees Celcius

O=C1Nc2ccc(I)cc2/C1=C1/Nc2ccccc2/C1=N\O [Indirubin-3ʹ′-monoxime, 5-Iodo-, Indirubin-3′ -monoxime, 5-Iodo-]
Melting temperature (Tm) shift [7]: 2.3 degrees Celcius
Melting temperature (Tm) shift [8]: 0.3 degrees Celcius
Melting temperature (Tm) shift [10]: 5.6 degrees Celcius
Melting temperature (Tm) shift [11]: 1.2 degrees Celcius

Akt Inhibitor VIII, Isozyme-Selective, Akti-1/2
Melting temperature (Tm) shift [13]: 0.2 degrees Celcius
Melting temperature (Tm) shift [2]: 0.4 degrees Celcius
Melting temperature (Tm) shift [4]: 0.1 degrees Celcius
Melting temperature (Tm) shift [12]: 0.0 degrees Celcius

CC(=O)O/N=C1/C(=C2/C(=O)Nc3cc(Br)ccc32)Nc2ccccc21 [GSK-3 Inhibitor X]
Melting temperature (Tm) shift [1]: 0.1 degrees Celcius
Melting temperature (Tm) shift [3]: 0.5 degrees Celcius
Melting temperature (Tm) shift [5]: 0.0 degrees Celcius
Melting temperature (Tm) shift [6]: 0.4 degrees Celcius
Melting temperature (Tm) shift [7]: 1.0 degrees Celcius
Melting temperature (Tm) shift [8]: 0.6 degrees Celcius
Melting temperature (Tm) shift [12]: 0.1 degrees Celcius
Melting temperature (Tm) shift [10]: 0.5 degrees Celcius

O=C1NC(=O)c2c1c1c3ccccc3[nH]c1c1[nH]c3ccccc3c21 [Arcyriaflavin A, Synthetic, Arcyriaflavin A]
Melting temperature (Tm) shift [1]: 0.0 degrees Celcius
Melting temperature (Tm) shift [7]: 0.5 degrees Celcius
Melting temperature (Tm) shift [8]: 0.2 degrees Celcius

O=C1c2ccccc2-[n+]2ccc3c([nH]c4ccccc43)c21 [Fascaplysin, Synthetic, Fascaplysin]
Melting temperature (Tm) shift [1]: 0.1 degrees Celcius
Melting temperature (Tm) shift [3]: 0.4 degrees Celcius
Melting temperature (Tm) shift [5]: 0.0 degrees Celcius
Melting temperature (Tm) shift [6]: 0.2 degrees Celcius
